This is an account of results in patent US20260306503A1, “(S)-2-HYDROXY-6-((4-(2-(2-HYDROXYETHYL)NICOTINOYL)MORPHOLIN-3-YL)METHOXY)BENZALDEHYD FOR USE IN THE TREATMENT OF SICKLE CELL DISEASE” (Global Blood Therapeutics, Inc., priority 2023, published 2026).

The target in the assay is T1, hemoglobin (Homo sapiens, UniProt P69905).
T1 construct: whole blood ex vivo
Nature of the assay: Hb occupancy calculated from preliminary PK analysis of whole blood samples. The format is in vivo. The note with it: Patient A, 300 mg QD 14 days then 200 mg QD. Here is the method:
In some embodiments, the therapeutically effective amount is determined by measuring the percent of hemoglobin occupied by the compound, i.e., the percent Hb occupancy. The percent Hb occupancy is a measure of target engagement defined as the percentage of hemoglobin bound by a compound (e.g., Compound I) calculated as the molar concentration of the compound (e.g., Compound I) in RBCs divided by the molar concentration of hemoglobin in RBCs (the mean corpuscular hemoglobin concentration calculated from the hematology panel). The values for concentration of a compound (e.g., Compound I) in RBCs is calculated from the concentrations in whole blood and plasma, and the hematocrit.
In some embodiments, the percent hemoglobin occupancy may be calculated as described herein. In some embodiments, percent hemoglobin occupancy is the molar ratio of Compound I concentration to the Hb concentration in red blood cells.
Some newly enrolled participants in Part A will receive a loading dose regimen of 300 mg of Compound I once daily over the first 14 days. Participants will then receive 200 mg once daily maintenance doses through Week 12.
Based on preliminary pharmacokinetic (PK) analysis of whole blood samples taken from Patient A at day 15 and day 29, Hb occupancy values of 62% and 53%, respectively, were calculated.

T1 sequence (P69905 whole entry): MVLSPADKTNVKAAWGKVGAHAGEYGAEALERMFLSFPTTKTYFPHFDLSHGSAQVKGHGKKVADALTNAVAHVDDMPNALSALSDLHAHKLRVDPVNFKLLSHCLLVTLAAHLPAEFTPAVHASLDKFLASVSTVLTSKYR
T1 sequence (P68871 with tags, fused parts or gaps E7V partner): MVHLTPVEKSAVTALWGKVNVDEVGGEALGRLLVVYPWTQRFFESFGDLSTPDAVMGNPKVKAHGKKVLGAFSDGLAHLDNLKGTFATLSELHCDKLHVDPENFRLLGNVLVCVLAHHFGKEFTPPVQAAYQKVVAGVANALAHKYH

Take `O=Cc1c(O)cccc1OC[C@@H]1COCCN1C(=O)c1cccnc1CCO` [Compound I, (S)-2-hydroxy-6-((4-(2-(2-hydroxyethyl)nicotinoyl)morpholin-3-yl)methoxy)benzaldehyde]: the Hb occupancy (day 15, whole blood, 21600 min) is 62% and the Hb occupancy (day 29, whole blood, 41760 min) is on record as 53%.
